Measured values from patent US11696913B2, “Prolonged ectoparasite-controlling agent for animal” (MITSUI CHEMICALS AGRO, INC., priority 2017, dated 2023).

Experiments:
[1] = tested on: Ctenocephalides felis; assay: In vitro contact test with fleas; details: read-out: insecticidal activity; for pest or weed control at 0.2 µg/cm2, 0.2 µg/cm2: dose 0.2 μg/cm^2, dead or moribund fleas after 48 h; for pest or weed control at 1 µg/cm2, 1 µg/cm2: dose 1 μg/cm^2, dead or moribund fleas after 48 h
Protocol: In Vitro Contact Tests with Fleas
In vitro contact tests with fleas were conducted with adult male and female cat fleas (Ctenocephalides felis).
(§1) To coat the test tubes, the test substance was dissolved and diluted in acetone p.a. to the desired concentration. The solution was then homogeneously applied to the inner wall and base of a glass tube by turning and rocking on an orbital shaker until complete evaporation of the solvent. For example, with a 900 ppm solution of test substance, an area-based dose of 5 μg/cm^2 was achieved.
Upon complete evaporation of the solvent, 5-10 adult cat fleas (Ctenocephalides felis) were added to each coated tube, which was then sealed with a perforated plastic lid and incubated in a horizontal position at room temperature and ambient humidity. After 48 h, insecticidal activity against fleas was determined. For this, fleas were collected to the base of the tube by knocking the tube, and the tube was allowed to stand upright. Fleas which remained motionless at the base or moved in an uncoordinated manner were considered dead or moribund, respectively.
A substance was judged to have good insecticidal activity against Ctenocephalides felis when at least 80% of the fleas were found dead or moribund at a dose of the substance of μg/cm^2. 100% insecticidal activity means that all the fleas were found dead or moribund. 0% insecticidal activity means that no fleas were found dead or moribund.

[2] = tested on: Amblyomma americanum; assay: In vitro contact test with hard ticks (Amblyomma americanum nymphs); details: read-out: acaricidal activity; for pest or weed control at 1 µg/cm2, 1 µg/cm2: dose 1 μg/cm^2, 48 h; for pest or weed control at 0.2 µg/cm2, 0.2 µg/cm2: dose 0.2 μg/cm^2, 48 h
Protocol: (§2) In Vitro Contact Tests with Adult Hard Ticks
(§3) In vitro contact tests with ticks were conducted with adult males and females of Rhipicephalus sanguineus, Ixodes ricinus, or Dermacentor variabilis, or nymphs of Amblyomma americanum.
as §1, with “For the coating of” for “To coat”, “vials,” for “tubes,”, “vial” for “tube”
(§4) After the solvent was completely evaporated, 5-10 adult ticks were put in each coated test vial, which was then sealed with a perforated plastic lid and incubated in a horizontal position in the dark at room temperature and ambient humidity (Rhipicephalus sanguineus) or in a climate-controlled cabinet (Ixodes ricinus, Dermacentor variabilis, Amblyomma americanum [21° C., 85% rel. hum.]). Acaricidal activity against the respective tick species was determined after 48 h. For this, ticks were collected to the base of the test vial by gentle knocking, and test vials were then incubated on a hotplate at 45-50° C. for no longer than 5 min. Ticks which remained motionless on the base of the test vial or moved uncoordinated without deliberately climbing up to avoid the heat were considered dead or moribund, respectively.
(§5) A substance was judged to have good acaricidal activity against the respective tick species when at least 80% of ticks were found dead or moribund at a dose of the substance of g/cm^2. An acaricidal activity of 100% means all ticks were dead or moribund. An acaricidal activity of 0% means none of the ticks was found dead or moribund.

[3] = tested on: Dermacentor variabilis; assay: In vitro contact test with adult hard ticks (Dermacentor variabilis); details: read-out: acaricidal activity; for pest or weed control at 0.2 µg/cm2, 0.2 µg/cm2: dose 0.2 μg/cm^2, 48 h; for pest or weed control at 1 µg/cm2, 1 µg/cm2: dose 1 μg/cm^2, 48 h
Protocol: as §2, §3
as §1, with “For the coating of” for “To coat”, “vials,” for “tubes,”, “vial” for “tube”
as §4, §5

[4] = tested on: Rhipicephalus sanguineus; assay: In vitro contact test with adult hard ticks (Rhipicephalus sanguineus); details: read-out: acaricidal activity; for pest or weed control at 1 µg/cm2, 1 µg/cm2: dose 1 μg/cm^2, 48 h
Protocol: as §2, §3
as §1, with “For the coating of” for “To coat”, “vials,” for “tubes,”, “vial” for “tube”
as §4, §5

[5] = tested on: Rhipicephalus (Boophilus) microplus; assay: In vitro injection test with Rhipicephalus (Boophilus) microplus (BOOPMI Inj); details: 168 h, laid fertile eggs after 7 days, read-out: acaricidal activity; for pest or weed control at 0.00016 mg: dose 0.16 μg/animal injected; for pest or weed control at 0.0008 mg: dose 0.8 μg/animal injected
Protocol: In Vitro Injection Test with Rhipicephalus (Boophilus) Microplus (BOOPMI Inj)
To produce an appropriate mixture for injection, the test substance was dissolved and diluted in dimethyl sulphoxide to the desired concentration. 1 μl of the test mixture was injected into the abdomen of each of 5 engorged adult female cattle ticks (Rhipicephalus (Boophilus) microplus). The ticks were transferred into petri dishes and maintained in a climate-controlled room [28° C., 85% rel. hum.].
Acaricidal activity against cattle ticks was assessed after 7 days by assessment of laid fertile eggs. […] An acaricidal activity of 100% means that none of the ticks laid eggs or laid eggs were infertile; 0% means that the ticks laid eggs, and all the eggs were fertile.

[6] = tested on: Ctenocephalides felis; assay: Ctenocephalides felis in-vitro feeding test with fleas (CTECFE oral); details: 48 hours, read-out: insecticidal feeding activity; for pest or weed control at 0.16 ppm: dose 0.16 ppm in citrated cattle blood; for pest or weed control at 0.8 ppm: dose 0.8 ppm in citrated cattle blood; for pest or weed control at 4 ppm: dose 4 ppm in citrated cattle blood
Protocol: Ctenocephalides felis In-Vitro Feeding Test with Fleas (CTECFE Oral)
To prepare a test blood mixture for feeding fleas, the test substance was dissolved in dimethyl sulphoxide and diluted with citrated cattle blood to the desired concentration.
To assemble the test set-up, about 20 unfed adult male and female cat fleas
(Ctenocephalides felis) were placed in a chamber which was closed at the top and bottom with gauze. A metal cylinder was sealed at one end with parafilm membrane, placed with the sealed base onto the chamber, and filled with the test blood mixture, which could be imbibed by the fleas through the parafilm membrane. The assembled test set-up was maintained at about 37° C. After 48 hours, the insecticidal feeding activity against fleas was determined. 100% means that all of the fleas were killed; 0% means that none of the fleas was killed.

[7] = tested on: Ixodes ricinus; assay: In vitro contact test with adult hard ticks (Ixodes ricinus); details: dose 5 μg/cm^2, 48 h, read-out: acaricidal activity
Protocol: as §2, §3
as §1, with “For the coating of” for “To coat”, “vials,” for “tubes,”, “vial” for “tube”
as §4, §5

SMILES | pest or weed control at 0.2 µg/cm2, 0.2 µg/cm2 [1] [%] | pest or weed control at 1 µg/cm2, 1 µg/cm2 [1] [%] | pest or weed control at 1 µg/cm2, 1 µg/cm2 [2] [%] | pest or weed control at 0.2 µg/cm2, 0.2 µg/cm2 [3] [%] | pest or weed control at 1 µg/cm2, 1 µg/cm2 [3] [%] | pest or weed control at 1 µg/cm2, 1 µg/cm2 [4] [%] | pest or weed control at 0.00016 mg [5] [%] | pest or weed control at 0.0008 mg [5] [%] | pest or weed control at 0.16 ppm [6] [%] | pest or weed control at 0.8 ppm [6] [%] | pest or weed control at 4 ppm [6] [%] | pest or weed control at 0.2 µg/cm2, 0.2 µg/cm2 [2] [%] | also measured
CN(C(=O)c1ccc(C#N)cc1)c1cccc(C(=O)Nc2c(I)cc(C(F)(C(F)(F)F)C(F)(F)C(F)(F)F)cc2C(F)(F)F)c1F (stereo not shown) [Compound 23] | 95 | 95 | 90 | 90 | 90 | 90 | 100 | 100 | 95 | 95 | 95 |  | pest or weed control at 0.04 µg/cm2, 0.04 µg/cm2 ([1]; dose 0.04 μg/cm^2, dead or moribund fleas after 48 h): 95%; pest or weed control at 0.04 µg/cm2, 0.04 µg/cm2 ([3]; dose 0.04 μg/cm^2, 48 h): 90%; pest or weed control at 6.4 ng ([5]; dose 0.0064 μg/animal injected): 100%; pest or weed control at 32 ng ([5]; dose 0.032 μg/animal injected): 100%; pest or weed control at 0.0064 ppm ([6]; dose 0.0064 ppm in citrated cattle blood): 95%; pest or weed control at 0.032 ppm ([6]; dose 0.032 ppm in citrated cattle blood): 95%
O=C(Nc1cccc(C(=O)Nc2c(Br)cc(C(F)(C(F)(F)F)C(F)(F)F)cc2C(F)(F)F)c1F)c1ccc(F)cc1 [Compound 29] | 95 | 95 | 90 | 90 | 90 | 90 |  |  |  | 95 | 95 | 90 | pest or weed control at 5 µg/cm2, 5 µg/cm2 [7]: 90%; pest or weed control at 0.04 µg/cm2, 0.04 µg/cm2 ([4]; dose 0.04 μg/cm^2, 48 h): 90%; pest or weed control at 0.2 µg/cm2, 0.2 µg/cm2 ([4]; dose 0.2 μg/cm^2, 48 h): 90%
O=C(Nc1cccc(C(=O)Nc2c(I)cc(C(F)(C(F)(F)F)C(F)(F)F)cc2C(F)(F)F)c1F)c1ccc(Cl)cc1Cl [Compound 33] | 95 | 95 | 90 | 90 | 90 |  | 100 | 100 | 95 | 95 | 95 | 90 | 
O=C(Nc1c(I)cc(C(F)(C(F)(F)F)C(F)(F)F)cc1C(F)(F)F)c1cccc(NC(=O)c2cc(F)c(F)cc2Cl)c1 [Compound 38] | 95 | 95 | 90 |  | 90 |  | 100 | 100 | 95 | 95 | 95 | 90 | 
O=C(Nc1c(I)cc(C(F)(C(F)(F)F)C(F)(F)F)cc1C(F)(F)F)c1cccc(NC(=O)c2ccc([N+](=O)[O-])cc2Cl)c1 [Compound 39] |  | 95 | 90 |  |  | 90 | 100 | 100 |  | 95 | 95 | 90 | 
